Measurements reported in patent US9751886B2, “4-amino-6-phenyl-6,7-dihydro[1,2,3]triazolo[1,5-A]pyrazine derivatives as inhibitors of beta-secretase (BACE)” (Janssen Pharmaceutica NV, priority 2013, dated 2017).

Test system: brain levels of soluble Aβ42, Aβ40
Test: In vivo Aβ lowering in non-transgenic rodents (MSD electrochemiluminescence)
Design: species or system mouse
Conditions: dose 10, s.c., untreated control = 100
Description: To determine whether acute administration of an Aβ lowering agent would reduce Aβ levels in vivo, non-transgenic rodents, e.g. mice or rats were used. Animals treated with the Aβ lowering agent were examined and compared to those untreated or treated with vehicle and brain levels of soluble Aβ42, Aβ40, Aβ38, and Aβ37 were quantitated by Meso Scale Discovery's (MSD) electrochemiluminescence detection technology. Treatment periods varied from hours (h) to days and were adjusted based on the results of the Aβ lowering once a time course of onset of effect could be established.
A typical protocol for measuring Aβ lowering in vivo is shown but it is only one of many variations that could be used to optimize the levels of detectable A. For example, Aβ lowering compounds were formulated in 20% of Captisol® (a sulfo-butyl ether of β-cyclodextrin) in water or 20% hydroxypropyl β cyclodextrin. The Aβ lowering agents were administered as a single oral dose or by any acceptable route of administration to overnight fasted animals. […]
Blood was collected by decapitation and exsanguinations in EDTA-treated collection tubes. Blood was centrifuged at 1900 g for 10 minutes (min) at 4° C. and the plasma recovered and flash frozen for later analysis. The brain was removed from the cranium and hindbrain. The cerebellum was removed and the left and right hemisphere were separated. The left hemisphere was stored at −18° C. for quantitative analysis of test compound levels. The right hemisphere was rinsed with phosphate-buffered saline (PBS) buffer and immediately frozen on dry ice and stored at −80° C. until homogenization for biochemical assays.
Mouse brains from non-transgenic animals were resuspended in 8 volumes of 0.4% DEA (diethylamine)/50 mM NaCl containing protease inhibitors (Roche-11873580001 or 04693159001) per gram of tissue, e.g. for 0.158 g brain, add 1.264 ml of 0.4% DEA. All samples were homogenized in the FastPrep-24 system (MP Biomedicals) using lysing matrix D (MPBio #6913-100) at 6 m/s for 20 seconds. Homogenates were centrifuged at 20800×g for 5 min and supernatants collected. Supernatants were centrifuged at 221.300×g for 50 min. The resulting high speed supernatants were then transferred to fresh eppendorf tubes. Nine parts of supernatant were neutralized with 1 part 0.5 M Tris-HCl pH 6.8 and used to quantify Aβ.
To quantify the amount of Aβ42, Aβ40, Aβ38, and Aβ37 in the soluble fraction of the brain homogenates, simultaneous specific detection of Aβ42, Aβ40, Aβ38, and Aβ37 was performed using MSD's electro-chemiluminescence multiplex detection technology. In this assay purified monoclonal antibodies specific for Abeta37 (JRD/Aβ37/3), Abeta38 (J&JPRD/Aβ38/5), Abeta40 (JRF/cAβ40/28), and Abeta42 (JRF/cAβ(342/26) were coated on MSD 4-plex plates. Briefly, the standards (a dilution of synthetic Aβ42, Aβ40, Aβ38, and Aβ37) were prepared in 1.5 ml Eppendorf tube in Ultraculture, with final concentrations ranging from 10000 to 0.3 pg/m. The samples and standards were co-incubated with Sulfo-tag labelled JRF/rAβ/2 antibody to the N-terminus of Aβ as detector antibody. 50 μl of conjugate/sample or conjugate/standards mixtures were then added to the antibody-coated plate. The plate was allowed to incubate overnight at 4° C. in order to allow formation of the antibody-amyloid complex. Following this incubation and subsequent wash steps the assay was finished by adding read buffer according to the manufacturer's instructions (Meso Scale Discovery, Gaitherburg, Md.).
The SULFO-TAG emits light upon electrochemical stimulation initiated at the electrode. MSD Sector instrument SI6000 was used for signal read-out.
The results are shown in Table 8 (value for untreated animals as control (Ctrl) was set at 100): […]

## C[C@@]1(c2cc(NC(=O)c3ccc(F)cn3)ccc2F)Cn2nncc2C(N)=N1 [Compound 1, N-{3-[(6R)-4-amino-6-methyl-6,7-dihydro[1,2,3]triazolo[1,5-a]pyrazin-6-yl]-4-fluorophenyl}-5-fluoropyridine-2-carboxamide]
2 h after administration
  Aβ40 (% vs Ctrl)_Mean: 47 % vs Ctrl
  Aβ42 (% vs Ctrl)_Mean: 47 % vs Ctrl
4 h after administration
  Aβ40 (% vs Ctrl)_Mean: 73 % vs Ctrl
  Aβ42 (% vs Ctrl)_Mean: 55 % vs Ctrl
